# Species on record: Rattus norvegicus
# Test: Open TG-GATES - Regimen: Single
# Assay type: toxicity, organism-based, Sprague-Dawley
# Parameters: regimen Single, gender Male, age 6 weeks
# Conditions: in vivo, po, 0 mg/kg, route gavage, dose level Control; for APTT / Bas / Eos / Fbg / Hb / Ht / Lym / MCH / MCHC / MCV / Mono / Neu / PT / Plat / RBC / Ret / WBC: tissue Blood; for KIDNEY_L / KIDNEY_R / KIDNEY_TOTAL: tissue Kidney; for LIVER: tissue Liver; for ALP / ALT / AST / BUN / CRE / Ca / Cl / DBIL / GLC / IP / K / LDH / Na / PL / RALB / TBIL / TC / TG / TP / gamma-GTP: tissue Plasma
compound,measurement,setting,value
COC(=O)C1=C(C)NC(C)=C(C(=O)OC)C1c1ccccc1[N+](=O)[O-] [NIFEDIPINE],TERMINAL_BW,3 h,197.5 g
same,APTT,3 h,16.4 s
same,Bas,3 h,0.2%
same,Eos,3 h,0.8%
same,Fbg,3 h,271 mg/dL
same,Hb,3 h,13.3 g/dL
same,Ht,3 h,41.5%
same,Lym,3 h,74.2%
same,MCH,3 h,20.8 pg
same,MCHC,3 h,32.1%
same,MCV,3 h,64.8 fL
same,Mono,3 h,2.6%
same,Neu,3 h,21.2%
same,PT,3 h,14.8 s
same,Plat,3 h,120 x10_4/uL
same,RBC,3 h,641.4 x10_4/ul
same,Ret,3 h,8.7%
same,WBC,3 h,85.8 x10_2/uL
same,KIDNEY_L,3 h,0.9 g
same,KIDNEY_R,3 h,0.9 g
same,KIDNEY_TOTAL,3 h,1.8 g
same,LIVER,3 h,8.4 g
same,ALP,3 h,1457.4 IU/L
same,ALT,3 h,49.6 IU/L
same,AST,3 h,81.8 IU/L
same,BUN,3 h,9.4 mg/dL
same,CRE,3 h,0.2 mg/dL
same,Ca,3 h,10.6 mg/dL
same,Cl,3 h,105.6 meq/L
same,DBIL,3 h,0.012 mg/dL
same,GLC,3 h,178.4 mg/dL
same,IP,3 h,9.6 mg/dL
same,K,3 h,4.4 meq/L
same,LDH,3 h,90.8 IU/L
same,Na,3 h,142 meq/L
same,PL,3 h,128.2 mg/dL
same,RALB,3 h,2.5 g/dL
same,TBIL,3 h,0.044 mg/dL
same,TC,3 h,70.2 mg/dL
same,TG,3 h,42.4 mg/dL
same,TP,3 h,5.2 g/dL
same,gamma-GTP,3 h,1 IU/L
same,TERMINAL_BW,6 h,197 g
same,APTT,6 h,16.6 s
same,Bas,6 h,0.2%
same,Eos,6 h,1%
same,Fbg,6 h,298 mg/dL
same,Hb,6 h,13.5 g/dL
same,Ht,6 h,42.2%
same,Lym,6 h,71.2%
same,MCH,6 h,21.1 pg
same,MCHC,6 h,32%
same,MCV,6 h,65.8 fL
same,Mono,6 h,3.2%
same,Neu,6 h,23.6%
same,PT,6 h,15 s
same,Plat,6 h,127.7 x10_4/uL
same,RBC,6 h,641.2 x10_4/ul
same,Ret,6 h,8.8%
same,WBC,6 h,94.9 x10_2/uL
same,KIDNEY_L,6 h,0.9 g
same,KIDNEY_R,6 h,0.9 g
same,KIDNEY_TOTAL,6 h,1.7 g
same,LIVER,6 h,8.2 g
same,ALP,6 h,1485.2 IU/L
same,ALT,6 h,43.4 IU/L
same,AST,6 h,71 IU/L
same,BUN,6 h,9 mg/dL
same,CRE,6 h,0.2 mg/dL
same,Cl,6 h,107.4 meq/L
same,DBIL,6 h,0.008 mg/dL
same,GLC,6 h,177.8 mg/dL
same,IP,6 h,9.7 mg/dL
same,K,6 h,4.2 meq/L
same,LDH,6 h,70.4 IU/L
same,Na,6 h,144 meq/L
same,PL,6 h,139.8 mg/dL
same,RALB,6 h,2.5 g/dL
same,TBIL,6 h,0.036 mg/dL
same,TC,6 h,78.8 mg/dL
same,TG,6 h,56 mg/dL
same,TP,6 h,5.4 g/dL
same,gamma-GTP,6 h,1 IU/L
same,TERMINAL_BW,9 h,193.8 g
same,APTT,9 h,16 s
same,Bas,9 h,0%
same,Eos,9 h,1%
same,Fbg,9 h,297 mg/dL
same,Hb,9 h,13.1 g/dL
same,Ht,9 h,40.6%
same,Lym,9 h,80.6%
same,MCH,9 h,21 pg
same,MCHC,9 h,32.4%
same,MCV,9 h,65 fL
same,Mono,9 h,2%
same,Neu,9 h,15.8%
same,PT,9 h,14.7 s
same,Plat,9 h,120.3 x10_4/uL
same,RBC,9 h,626.4 x10_4/ul
same,Ret,9 h,9%
same,WBC,9 h,65.5 x10_2/uL
same,KIDNEY_L,9 h,0.9 g
same,KIDNEY_R,9 h,0.9 g
same,KIDNEY_TOTAL,9 h,1.7 g
same,LIVER,9 h,7.4 g
same,ALP,9 h,1438.2 IU/L
same,ALT,9 h,35.6 IU/L
same,AST,9 h,67 IU/L
same,BUN,9 h,8.2 mg/dL
same,CRE,9 h,0.2 mg/dL
same,Ca,9 h,10.4 mg/dL
same,Cl,9 h,106.6 meq/L
same,DBIL,9 h,0.002 mg/dL
same,GLC,9 h,162.8 mg/dL
same,IP,9 h,10.2 mg/dL
same,K,9 h,3.7 meq/L
same,LDH,9 h,61.4 IU/L
same,Na,9 h,143.4 meq/L
same,PL,9 h,130.6 mg/dL
same,RALB,9 h,2.5 g/dL
same,TBIL,9 h,0.04 mg/dL
same,TC,9 h,79 mg/dL
same,TG,9 h,18.4 mg/dL
same,TP,9 h,5.3 g/dL
same,gamma-GTP,9 h,1.2 IU/L
same,TERMINAL_BW,24 h,213.5 g
same,APTT,24 h,16.3 s
same,Bas,24 h,0%
same,Eos,24 h,1%
same,Fbg,24 h,285.8 mg/dL
same,Hb,24 h,13.1 g/dL
same,Ht,24 h,40.6%
same,Lym,24 h,73.2%
same,MCH,24 h,21.2 pg
same,MCHC,24 h,32.3%
same,MCV,24 h,65.5 fL
same,Mono,24 h,3%
same,Neu,24 h,21.8%
same,PT,24 h,14.2 s
same,Plat,24 h,118.4 x10_4/uL
same,RBC,24 h,620 x10_4/ul
same,Ret,24 h,8.7%
same,WBC,24 h,87.2 x10_2/uL
same,KIDNEY_L,24 h,0.9 g
same,KIDNEY_R,24 h,0.9 g
same,KIDNEY_TOTAL,24 h,1.8 g
same,LIVER,24 h,9.6 g
same,ALP,24 h,1663.2 IU/L
same,ALT,24 h,44 IU/L
same,AST,24 h,75 IU/L
same,BUN,24 h,15.2 mg/dL
same,CRE,24 h,0.2 mg/dL
same,Ca,24 h,11 mg/dL
same,Cl,24 h,106.6 meq/L
same,DBIL,24 h,0.018 mg/dL
same,GLC,24 h,187 mg/dL
same,IP,24 h,8.3 mg/dL
same,K,24 h,4.3 meq/L
same,LDH,24 h,67.4 IU/L
same,Na,24 h,145.6 meq/L
same,PL,24 h,156.8 mg/dL
same,RALB,24 h,2.7 g/dL
same,TBIL,24 h,0.03 mg/dL
same,TC,24 h,87.8 mg/dL
same,TG,24 h,62.6 mg/dL
same,TP,24 h,5.7 g/dL

# From ChEMBL document CHEMBL3885861, “Open TG-GATES”
